pIC50, pKd, pKi: −log10 of the molar value.
Molecular target: T1, Fatty acid-binding protein, adipocyte (Homo sapiens, UniProt P15090)
Experiment: Binding affinity to FABP4 (unknown origin) by isothermal calorimetric titration method
Conditions: not given

T1 sequence (P15090 whole entry): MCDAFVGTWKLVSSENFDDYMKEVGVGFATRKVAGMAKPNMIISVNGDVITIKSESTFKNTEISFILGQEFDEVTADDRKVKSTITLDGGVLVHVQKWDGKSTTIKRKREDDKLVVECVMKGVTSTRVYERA

| pKd | Compound |
| --- | --- |
| 5.22 | COc1ccc(S(=O)(=O)Nc2cccc(C(=O)O)c2F)c2ccccc12 |

Molecular target: Fatty acid-binding protein, heart (Homo sapiens, UniProt P05413)
Experiment: Inhibition of FABP3 (unknown origin)
Conditions: not given

Fatty acid-binding protein, heart, sequence (P05413 whole entry): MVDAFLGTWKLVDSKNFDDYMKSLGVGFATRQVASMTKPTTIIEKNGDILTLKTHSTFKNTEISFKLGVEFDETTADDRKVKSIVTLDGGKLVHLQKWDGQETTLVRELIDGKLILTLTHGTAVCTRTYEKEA

| pIC50 | Compound |
| --- | --- |
| < 4.00 | COc1ccc(S(=O)(=O)Nc2cc(C(=O)O)c(F)cc2F)c2ccccc12 |
| < 4.00 | COc1ccc(S(=O)(=O)Nc2ccc(F)c(C(=O)O)c2)c2ccccc12 |
| < 4.00 | COc1ccc(S(=O)(=O)Nc2cccc(C(=O)O)c2)c2ccccc12 |
| < 4.00 | COc1ccc(S(=O)(=O)Nc2cc(C(=O)O)ccc2F)c2ccccc12 |

Tested on: 3T3-L1
Experiment: Cytotoxicity against mouse 3T3L1 pre-adipocytes assessed as effect on cell viability up to 80 uM after 24 hrs by MTT assay
Format: cell-based
Conditions: 3t3-l1, 24 h

| Compound | Activity |
| --- | --- |
| COc1ccc(S(=O)(=O)Nc2ccc(F)c(C(=O)O)c2)c2ccccc12 | Non-Toxic |
| COc1ccc(S(=O)(=O)Nc2cc(C(=O)O)ccc2F)c2ccccc12 | Non-Toxic |

Tested on: not listed separately
Experiment: Half life in human liver microsomes at 0.1 uM by HPLC-MS/MS analysis
Format: ADME, microsome
Conditions: not given

| half-life at 0.1 µM | Compound |
| --- | --- |
| 4.66 h | COc1ccc(S(=O)(=O)Nc2ccc(F)c(C(=O)O)c2)c2ccccc12 |
| 4.99 h | COc1ccc(S(=O)(=O)Nc2cc(C(=O)O)ccc2F)c2ccccc12 |

Tested on: not listed separately
Experiment: Half life in rat liver microsomes at 0.1 uM by HPLC-MS/MS analysis
Format: ADME, microsome
Conditions: not given

| half-life at 0.1 µM | Compound |
| --- | --- |
| 11.1 h | COc1ccc(S(=O)(=O)Nc2ccc(F)c(C(=O)O)c2)c2ccccc12 |
| 12.1 h | COc1ccc(S(=O)(=O)Nc2cc(C(=O)O)ccc2F)c2ccccc12 |

Tested on: not listed separately
Experiment: Half life in mouse liver microsomes at 0.1 uM by HPLC-MS/MS analysis
Format: ADME, microsome
Conditions: not given

| half-life at 0.1 µM | Compound |
| --- | --- |
| 24.6 h | COc1ccc(S(=O)(=O)Nc2ccc(F)c(C(=O)O)c2)c2ccccc12 |
| 14.3 h | COc1ccc(S(=O)(=O)Nc2cc(C(=O)O)ccc2F)c2ccccc12 |

Tested on: not listed separately
Experiment: Intrinsic clearance in human liver microsomes assessed per gram of protein at 0.1 uM by HPLC-MS/MS analysis
Format: ADME, microsome
Conditions: not given

| CLint | Compound |
| --- | --- |
| 7.51 mL/min/g | COc1ccc(S(=O)(=O)Nc2ccc(F)c(C(=O)O)c2)c2ccccc12 |
| 7.02 mL/min/g | COc1ccc(S(=O)(=O)Nc2cc(C(=O)O)ccc2F)c2ccccc12 |

Tested on: not listed separately
Experiment: Intrinsic clearance in rat liver microsomes assessed per gram of protein at 0.1 uM by HPLC-MS/MS analysis
Format: ADME, microsome
Conditions: not given

| CLint | Compound |
| --- | --- |
| 3.15 mL/min/g | COc1ccc(S(=O)(=O)Nc2ccc(F)c(C(=O)O)c2)c2ccccc12 |
| 2.9 mL/min/g | COc1ccc(S(=O)(=O)Nc2cc(C(=O)O)ccc2F)c2ccccc12 |

Tested on: not listed separately
Experiment: Intrinsic clearance in mouse liver microsomes assessed per gram of protein at 0.1 uM by HPLC-MS/MS analysis
Format: ADME, microsome
Conditions: not given

| CLint | Compound |
| --- | --- |
| 1.4 mL/min/g | COc1ccc(S(=O)(=O)Nc2ccc(F)c(C(=O)O)c2)c2ccccc12 |
| 2.4 mL/min/g | COc1ccc(S(=O)(=O)Nc2cc(C(=O)O)ccc2F)c2ccccc12 |

Tested on: not listed separately
Experiment: Stability in human liver microsomes assessed as parent compound remaining at 0.1 uM after 60 mins by HPLC-MS/MS analysis
Format: ADME, microsome
Conditions: read-out: Stability

| remaining at 1 h, 0.1 µM | Compound |
| --- | --- |
| 72.3% | COc1ccc(S(=O)(=O)Nc2ccc(F)c(C(=O)O)c2)c2ccccc12 |
| 73.6% | COc1ccc(S(=O)(=O)Nc2cc(C(=O)O)ccc2F)c2ccccc12 |

Tested on: not listed separately
Experiment: Stability in rat liver microsomes assessed as parent compound remaining at 0.1 uM after 60 mins by HPLC-MS/MS analysis
Format: ADME, microsome
Conditions: read-out: Stability

| remaining at 1 h, 0.1 µM | Compound |
| --- | --- |
| 93.4% | COc1ccc(S(=O)(=O)Nc2ccc(F)c(C(=O)O)c2)c2ccccc12 |
| 93.9% | COc1ccc(S(=O)(=O)Nc2cc(C(=O)O)ccc2F)c2ccccc12 |

Tested on: not listed separately
Experiment: Stability in mouse liver microsomes assessed as parent compound remaining at 0.1 uM after 60 mins by HPLC-MS/MS analysis
Format: ADME, microsome
Conditions: read-out: Stability

| remaining at 1 h, 0.1 µM | Compound |
| --- | --- |
| 96.9% | COc1ccc(S(=O)(=O)Nc2ccc(F)c(C(=O)O)c2)c2ccccc12 |
| 94.8% | COc1ccc(S(=O)(=O)Nc2cc(C(=O)O)ccc2F)c2ccccc12 |

Tested on: Mus musculus
Experiment: Toxicity in C57BL/Ksj db/db mouse assessed as body weight loss at 100 mg/kg, po administered once daily via lavage for 5 weeks measured daily during compound dosing
Format: organism-based
Conditions: in vivo, 840 h

| Compound | Activity |
| --- | --- |
| COc1ccc(S(=O)(=O)Nc2ccc(F)c(C(=O)O)c2)c2ccccc12 | Non-Toxic |
| COc1ccc(S(=O)(=O)Nc2cc(C(=O)O)ccc2F)c2ccccc12 | Non-Toxic |

Tested on: Mus musculus
Experiment: Hepatotoxicity in C57BL/Ksj db/db mouse at 100 mg/kg, po administered once daily via lavage for 5 weeks measured daily during compound dosing
Format: toxicity, organism-based
Conditions: in vivo, 840 h

| Compound | Activity |
| --- | --- |
| COc1ccc(S(=O)(=O)Nc2ccc(F)c(C(=O)O)c2)c2ccccc12 | Non-Toxic |
| COc1ccc(S(=O)(=O)Nc2cc(C(=O)O)ccc2F)c2ccccc12 | Non-Toxic |

Tested on: Mus musculus
Experiment: Renal toxicity in C57BL/Ksj db/db mouse at 100 mg/kg, po administered once daily via lavage for 5 weeks measured daily during compound dosing
Format: organism-based
Conditions: in vivo, 840 h

| Compound | Activity |
| --- | --- |
| COc1ccc(S(=O)(=O)Nc2ccc(F)c(C(=O)O)c2)c2ccccc12 | Non-Toxic |
| COc1ccc(S(=O)(=O)Nc2cc(C(=O)O)ccc2F)c2ccccc12 | Non-Toxic |

Tested on: Mus musculus
Experiment: Toxicity in C57BL/Ksj db/db mouse assessed as effect on pancreas at 100 mg/kg, po administered once daily via lavage for 5 weeks measured daily during compound dosing
Format: organism-based
Conditions: in vivo, 840 h

| Compound | Activity |
| --- | --- |
| COc1ccc(S(=O)(=O)Nc2ccc(F)c(C(=O)O)c2)c2ccccc12 | Non-Toxic |
| COc1ccc(S(=O)(=O)Nc2cc(C(=O)O)ccc2F)c2ccccc12 | Non-Toxic |

Tested on: Mus musculus
Experiment: Toxicity in C57BL/Ksj db/db mouse assessed as effect on abdominal adipose tissue lipid content at 100 mg/kg, po administered once daily via lavage for 5 weeks measured daily during compound dosing
Format: organism-based
Conditions: in vivo, 840 h

| Compound | Activity |
| --- | --- |
| COc1ccc(S(=O)(=O)Nc2ccc(F)c(C(=O)O)c2)c2ccccc12 | Non-Toxic |
| COc1ccc(S(=O)(=O)Nc2cc(C(=O)O)ccc2F)c2ccccc12 | Non-Toxic |

Tested on: Mus musculus
Experiment: Effect on total cholesterol levels in C57BL/Ksj db/db mouse at 100 mg/kg, po administered once daily via lavage for 2 to 4 weeks
Format: ADME, organism-based
Conditions: in vivo

| Compound | Activity |
| --- | --- |
| COc1ccc(S(=O)(=O)Nc2ccc(F)c(C(=O)O)c2)c2ccccc12 | Non-Toxic |
| COc1ccc(S(=O)(=O)Nc2cc(C(=O)O)ccc2F)c2ccccc12 | Non-Toxic |

Tested on: Mus musculus
Experiment: Antidiabetic activity in C57BL/Ksj db/db mouse assessed as reduction in fasting blood glucose level at 100 mg/kg, po administered once daily via lavage for 14 to 35 days relative to control
Format: functional
Design: scale not given: the % may be the effect or the level left
Conditions: not given

| Compound | Activity |
| --- | --- |
| COc1ccc(S(=O)(=O)Nc2ccc(F)c(C(=O)O)c2)c2ccccc12 | 20 - 35% |
| COc1ccc(S(=O)(=O)Nc2cc(C(=O)O)ccc2F)c2ccccc12 | 20 - 35% |

Molecular target: T1, Fatty acid-binding protein, adipocyte
Experiment: not given
Conditions: not given

| Compound | pKi | pIC50 |
| --- | --- | --- |
| O=C(O)CCCCNS(=O)(=O)c1ccc(Cl)c2ccccc12 | 5.73 |  |
| COc1ccc(S(=O)(=O)NCc2cccc(C(=O)O)c2)c2ccccc12 | 5.67 |  |
| O=C(O)CCCCCNS(=O)(=O)c1cc(Cl)cc(Cl)c1 | 5.32 |  |
| COc1ccc(C(=O)O)cc1NS(=O)(=O)c1ccc(OC)c2ccccc12 | < 5.21 |  |
| O=C(O)CCNS(=O)(=O)c1cc(Cl)cc(Cl)c1 | 5.19 |  |
| Cc1cc(C)c(C)c(S(=O)(=O)NCCCCC(=O)O)c1C | 5.71 |  |
| COc1ccc(S(=O)(=O)Nc2cc(C(=O)O)ccc2C)c2ccccc12 | 5.56 |  |
| O=C(O)CCCNC(=O)c1cc(Cl)cc(Cl)c1 | 5.36 |  |
| O=C(O)CCCCNS(=O)(=O)c1ccc(F)c2ccccc12 | 5.67 |  |
| COc1ccc(S(=O)(=O)NC(C)c2cccc(C(=O)O)c2)c2ccccc12 (configuration not stated) | < 5.21 |  |
| COc1ccc(S(=O)(=O)Nc2cc(C(=O)O)ccn2)c2ccccc12 | < 5.21 |  |
| COc1ccc(S(=O)(=O)Nc2cncc(C(=O)O)c2)c2ccccc12 | < 5.21 |  |
| COc1ccc(S(=O)(=O)Nc2cccc(C(=O)O)c2C)c2ccccc12 | < 5.21 |  |
| O=C(O)CCCNS(=O)(=O)c1cc(Cl)cc(Cl)c1 | 5.59 |  |
| COc1ccc(S(=O)(=O)Nc2cccc(C(=O)O)c2F)c2ccccc12 | 5.11 |  |
| COc1ccc(S(=O)(=O)Nc2ccc(F)c(C(=O)O)c2F)c2ccccc12 | 5.13 |  |
| Cc1cc(C)c(S(=O)(=O)NCCCCC(=O)O)c(C)c1 | 5.57 |  |
| COc1ccc(S(=O)(=O)Nc2ccc(C)c(C(=O)O)c2)c2ccccc12 | < 5.21 |  |

The remaining lines, values ahead:

| pKi | pIC50 | Compound |
| --- | --- | --- |
| 5.78 |  | COc1ccc(S(=O)(=O)Nc2ccc(CC(=O)O)cc2)c2ccccc12 |
| 5.78 |  | O=C(O)CSCC(=O)Nc1cc(Cl)cc(Cl)c1 |
| 5.89 |  | COc1ccc(S(=O)(=O)Nc2ccc(C(=O)O)cc2)c2ccccc12 |
| 5.92 |  | O=C(O)CCCCNS(=O)(=O)c1cc(Cl)cc(Cl)c1 |
| 5.94 |  | O=C(O)CCCCNS(=O)(=O)c1ccc(Br)c2ccccc12 |
| 5.94 |  | COc1ccc(S(=O)(=O)Nc2cc(F)cc(C(=O)O)c2)c2ccccc12 |
| 6.03 |  | COc1ccc(S(=O)(=O)Nc2cc(C(=O)O)ccc2Cl)c2ccccc12 |
| 6.04 |  | Cc1c(C)c(C)c(S(=O)(=O)NCCCCC(=O)O)c(C)c1C |
| 6.08 |  | COc1ccc(S(=O)(=O)Nc2cccc(CC(=O)O)c2)c2ccccc12 |
| 6.09 |  | COc1ccc(S(=O)(=O)Nc2cc(Cl)cc(C(=O)O)c2)c2ccccc12 |
| 6.12 |  | COc1ccc(S(=O)(=O)NCc2ccc(C(=O)O)cc2)c2ccccc12 |
| 6.24 |  | COc1ccc(S(=O)(=O)Nc2cccc(CCC(=O)O)c2)c2ccccc12 |
| 6.40 | 5.49 | COc1ccc(S(=O)(=O)Nc2cccc(C(=O)O)c2)c2ccccc12 |
| 6.64 | 5.74 | COc1ccc(S(=O)(=O)Nc2cc(C(=O)O)c(F)cc2F)c2ccccc12 |
| 6.68 | 5.77 | COc1ccc(S(=O)(=O)Nc2ccc(F)c(C(=O)O)c2)c2ccccc12 |

Tested on: not listed separately
Experiment: in vitro
Conditions: mouse, plasma
Description: Protein binding in mouse plasma at 1 uM after 16 hrs by LC-MS/MS analysis

| fraction unbound at 16 h, 1 µM | Compound |
| --- | --- |
| 0.0147 | COc1ccc(S(=O)(=O)Nc2ccc(F)c(C(=O)O)c2)c2ccccc12 |
| 0.109 | CC(C)NCC(O)COc1cccc2ccccc12 (configuration not stated) [PROPRANOLOL] |
